Read-outs that look alike come from different tables or passages of the source.
Key:
Assay type in all cases: binding
HLA-A*02:01 [1] = biological target: T1, HLA-A*02:01 (Homo sapiens, UniProt P04439, D140Y/D185E/D98H/E176V/E277Q/G131W/G231S/I119V/I121R/I166T/I218V/L300P/L318F/N151K/N90K/P208A/P217A/Q86G/Q94H/R138H/R169H/T345S); conditions: plate-bound monomer 0.5 µg/ml, duplicated experiments, positive binder >40%
HLA-A*02:01 [2] = biological target: T1, HLA-A*02:01; conditions: peptide quantity for 50% binding saturation
HLA-A*02:01 [3] = biological target: T1, HLA-A*02:01; conditions: time points 0-8 h; time when 50% of peptide has dissociated
HLA-A*24:02 = HLA-A*24:02 (Homo sapiens, UniProt P04439, D101N/D140Y/D185E/E176V/E190D/F33S/G103R/G107R/I119L/I121M/I306V/K335N/L105A/L180Q/L300P/N151K/N90K/Q86E/Q94H/R106L/R138H/R89G/T104I/T345S/V100E/W191G/Y123F); conditions: duplicated experiments, positive binder >40%
HLA-A*30:01 = HLA-A*30:01 (Homo sapiens, UniProt P04439, D140H/D185E/E176W/F33S/G80R/H175R/K168Q/R138E/R41S); conditions: duplicated experiments, positive binder >40%
HLA-A*30:02 [4] = biological target: T2, HLA-A*30:02 (Homo sapiens, UniProt P04439, D101N/D140H/D185E/E176R/F33S/G80R/H175R/K168Q/Q94H/R138E/R41S/V100E); conditions: duplicated experiments, positive binder >40%
HLA-A*30:02 [5] = biological target: T2, HLA-A*30:02
HLA-A*30:02 [6] = biological target: T2, HLA-A*30:02; conditions: time points 0-8 h
HLA-A*68:01 [7] = biological target: T3, HLA-A*68:01 (Homo sapiens, UniProt P04439, A269V/D185E/E176V/E277Q/E87N/F33Y/G231S/I121M/I166T/I218V/L180W/L300P/L318F/N151K/P208A/P217A/Q86R/R169H/T345S); conditions: duplicated experiments, positive binder >40%
HLA-B*07:02 = HLA-B*07:02 (Homo sapiens, UniProt P01889); conditions: percent relative the binding of positive control peptide […]; duplicated experiments; positive binder >40%
HLA-B*58:01 [8] = biological target: T4, HLA-B*58:01 (Homo sapiens, UniProt P01889, A329T/C349S/D201E/D98Y/E176V/E187L/E204Q/E69T/G107R/I218V/I90N/K202T/L105A/L119I/N104I/N87E/Q89R/Q94S/R106L/R155S/R180L/R86G/S101N/S121R/S35A/S48A/T118I/V127L/V306I/V36M/Y140S/Y91M); conditions: duplicated experiments, positive binder >40%
HLA-C*07:01 = HLA-C*07:01 (Homo sapiens, UniProt P10321, K90N/S123Y); conditions: duplicated experiments, positive binder >40%
HLA-A*68:01 [9] = biological target: T3, HLA-A*68:01
HLA-A*68:01 [10] = biological target: T3, HLA-A*68:01; conditions: time points 0-8 h
HLA-B*58:01 [11] = biological target: T4, HLA-B*58:01
HLA-B*58:01 [12] = biological target: T4, HLA-B*58:01; conditions: time points 0-8 h
[13] = percent relative the binding of positive control peptide FLPSDFFPSV
[14] = peptide titrated 10−4 to 10−9 M
[15] = percent relative the binding of positive control peptide RYLKDQQLL
[16] = percent relative the binding of positive control peptide KTKDIVNGL
[17] = percent relative the binding of positive control peptide KIQNFRVYY
[18] = percent relative the binding of positive control peptide KTGGPIYKR
[19] = percent relative the binding of positive control peptide IAMESIVIW
[20] = percent relative the binding of positive control peptide KYFDEHYEY
[21] = percent relative the binding of positive control peptide […]

| Substance | Bind A*02:01 (HLA-A*02:01 [1]; [13]) | Aff A*02:01 (ED50) (HLA-A*02:01 [2]; [14]) | O-rate A*02:01 (t1/2) (HLA-A*02:01 [3]) | Bind A*24:02 (HLA-A*24:02; [15]) | Bind A*30:01 (HLA-A*30:01; [16]) | Bind A*30:02 (HLA-A*30:02 [4]; [17]) | Bind A*68:01 (HLA-A*68:01 [7]; [18]) | Bind B*07:02 (HLA-B*07:02) | Bind B*58:01 (HLA-B*58:01 [8]; [19]) | Bind C*07:01 (HLA-C*07:01; [20]) | Bind A*02:01 (HLA-A*02:01 [1]; [21]) | Aff A*02:01 (ED50) (HLA-A*02:01 [2]; […]) | Bind A*68:01 (HLA-A*68:01 [7]; [21]) | Aff A*68:01 (ED50) (HLA-A*68:01 [9]) | O-rate A*68:01 (t1/2) (HLA-A*68:01 [10]) | Bind B*58:01 (HLA-B*58:01 [8]; [21]) | Bind C*07:01 (HLA-C*07:01; [21]) | Bind A*30:02 (HLA-A*30:02 [4]; [21]) | also measured |
| --- | --- | --- | --- | --- | --- | --- | --- | --- | --- | --- | --- | --- | --- | --- | --- | --- | --- | --- | --- |
| VQQKWDATA [Rv3875_54–62] | 54% | 0.005 µM | 1.2 h | 0% | 21% | 76% | 0% | 9% | 12% | 9% |  |  |  |  |  |  |  |  | Aff A*30:02 (ED50) (HLA-A*30:02 [5]; [14]): 0.06 µM; O-rate A*30:02 (t1/2) (HLA-A*30:02 [6]): 1.6 h |
| MLDHAGDMA [Rv0288_11–19m1] |  |  | 1.5 h |  |  |  |  |  |  |  | 48% | 0.06 µM |  |  |  |  |  |  |  |
| RDTAEAAKW [Rv0288_86–94] |  |  |  |  |  |  |  |  |  |  |  |  | 65% | 1e-05 M | 4.3 h | 45% | 0% |  | Aff B*58:01 (ED50) (HLA-B*58:01 [11]): 5 µM; O-rate B*58:01 (t1/2) (HLA-B*58:01 [12]): 2.6 h |
| KLAAAWGGS [Rv3875_38-46] | 57% | 0.1 µM | 2 h | 33% | 0% | 39% | 0% | 6% | 21% | 11% |  |  |  |  |  |  |  |  |  |
| WQGDTGITY [Rv0288_43–51] |  |  |  |  |  |  |  |  |  |  |  |  | 61% | 1e-05 M | 6.0 h | 33% | 0% |  | Aff B*58:01 (ED50) (HLA-B*58:01 [11]): 8 µM; O-rate B*58:01 (t1/2) (HLA-B*58:01 [12]): 1.8 h |
| IQGNVTSIH [Rv3875_18–26] | 51% | 1 µM | 0.2 h | 0% | 13% | 36% | 17% | 3% | 7% | 5% |  |  |  |  |  |  |  |  |  |
| LLDEGKQSL [Rv3875_28–36] | 61% | 0.7 µM | 4.9 h | 0% | 20% | 0% | 4% | 3% | 2% | 19% |  |  |  |  |  |  |  |  |  |
| GLSIVMPVG |  |  | 2.1 h |  |  |  |  | 0% |  |  | 100% | 0.07 µM | 0% |  |  | 0% | 0% | 0% | Bind A*24:02 (HLA-A*24:02; [21]): 0%; Bind A*30:01 (HLA-A*30:01; [21]): 0% |
| ITYQAWQAQ [Rv0288_49–57] |  |  |  |  |  |  |  |  |  |  |  |  | 56% | 9e-06 M | 1.9 h | 78% | 0% |  | Aff B*58:01 (ED50) (HLA-B*58:01 [11]): 0.2 µM; O-rate B*58:01 (t1/2) (HLA-B*58:01 [12]): 0.5 h |
| QAWQAQWNQ [Rv0288_52–60] |  |  |  |  |  |  |  |  |  |  |  |  | 55% | 7e-06 M | 3.0 h | 45% | 0% |  | Aff B*58:01 (ED50) (HLA-B*58:01 [11]): 4 µM; O-rate B*58:01 (t1/2) (HLA-B*58:01 [12]): 0.5 h |
| HSMSSTHEA [Rv0288_70–78m1] |  |  | 0.3 h |  |  |  |  |  |  |  | 45% | 1000 µM | 0% |  |  |  |  | 39% | Aff A*30:02 (ED50) (HLA-A*30:02 [5]): 0.006 µM; O-rate A*30:02 (t1/2) (HLA-A*30:02 [6]): 0.9 h |
| AMLDHAGDM [Rv0288_10–18m2] |  |  | 1.1 h |  |  |  |  |  |  |  | 47% | 0.08 µM |  |  |  |  |  | 100% | Bind A*24:02 (HLA-A*24:02; [21]): 13%; Aff A*30:02 (ED50) (HLA-A*30:02 [5]): 0.7 µM; O-rate A*30:02 (t1/2) (HLA-A*30:02 [6]): 0.4 h |
| SQIMYNYPT [Rv0288_2–10m1] |  |  | 0.7 h |  |  |  |  |  |  |  | 47% | 1 µM |  |  |  |  |  | 31% | Aff A*30:02 (ED50) (HLA-A*30:02 [5]): 4 µM; O-rate A*30:02 (t1/2) (HLA-A*30:02 [6]): 0.5 h |
| EQAALQSAW [Rv0288_35–43] |  |  |  |  |  |  |  |  |  |  |  |  | 47% | 1e-05 M | 2.8 h | 79% | 0% |  | Aff B*58:01 (ED50) (HLA-B*58:01 [11]): 6 µM; O-rate B*58:01 (t1/2) (HLA-B*58:01 [12]): 0.8 h |
| F EW YYQSG L |  |  | 0.8 h |  |  |  |  | 11% |  |  | 124% | 0.7 µM | 10% |  |  | 0% | 15% | 26% | Bind A*24:02 (HLA-A*24:02; [21]): 37%; Bind A*30:01 (HLA-A*30:01; [21]): 10% |
| ALQNLARTI [Rv3875_68–76] | 73% | 0.03 µM | 1.7 h | 0% | 0% | 17% | 0% | 8% | 0% | 0% |  |  |  |  |  |  |  |  |  |
| NLARTISEA [Rv3875_71–79] | 72% | 0.04 µM | 2.3 h | 11% | 15% | 17% | 9% | 10% | 21% | 12% |  |  |  |  |  |  |  |  |  |
| AVYLLDGLR |  |  |  |  |  |  |  | 0% |  |  | 24% |  | 114% | 2E -07 M | 1.1 h | 0% | 4% | 115% | Bind A*24:02 (HLA-A*24:02; [21]): 8%; Bind A*30:01 (HLA-A*30:01; [21]): 1%; Aff A*30:02 (ED50) (HLA-A*30:02 [5]): 0.2 µM; O-rate A*30:02 (t1/2) (HLA-A*30:02 [6]): 1.2 h |

Reference: publication PMC3608651, “A Broad Profile of Co-Dominant Epitopes Shapes the Peripheral Mycobacterium tuberculosis Specific CD8+ T-Cell Immune Response in South African Patients with Active Tuberculosis” (PLoS ONE, 2013)
